Reference: US20090275557A1, “Novel Composition for Treatment of Diseases Related to Activated Lymphocytes” (Immune Control, Inc., priority 2008, published 2009)

Legend:
Assay in all cases: 5-HT receptor binding, displacement of tritiated ligands
Conditions in all cases: at 10 μM
[1] = tested on: 5-HT4
Description: (§1) 5-HT receptor binding was measured using membrane preparations of brain regions known to be enriched with given 5-HT receptor subtype(s). The assay subsequently measured the displacement of tritiated ligands known to bind to a given 5-HT subtype.
(§2) A receptor binding assay was performed for ICI-1259 and ICI-1260 showing that at 10 μM, these compounds bind receptors 5-HT1A(h), 5-HT1B, 5-HT1D(h), 5-HT2A, 5-HT2A(h), 5-HT2B, 5-HT2C, 5-HT3,5-HT3(h), 5-HT4, 5-HT5A(h), 5-HT6, and 5-HT7.

[2] = target: T1, 5-HT5A(h) (Homo sapiens, UniProt P47898)
T1 construct: from tissue
Description: as §1, §2

[3] = target: T2, 5-HT2B (Homo sapiens, UniProt P41595)
T2 construct: from tissue
Description: as §1, §2

[4] = tested on: 5-HT7
Description: as §1, §2

[5] = target: T3, 5-HT1D(h) (Homo sapiens, UniProt P28221)
T3 construct: from tissue
Description: as §1, §2

[6] = tested on: 5-HT2A
Description: as §1, §2

[7] = tested on: 5-HT2C
Description: as §1, §2

[8] = target: T4, 5-HT1A(h) (Homo sapiens, UniProt P08908)
T4 construct: from tissue
T4 sequence (P08908 1-422): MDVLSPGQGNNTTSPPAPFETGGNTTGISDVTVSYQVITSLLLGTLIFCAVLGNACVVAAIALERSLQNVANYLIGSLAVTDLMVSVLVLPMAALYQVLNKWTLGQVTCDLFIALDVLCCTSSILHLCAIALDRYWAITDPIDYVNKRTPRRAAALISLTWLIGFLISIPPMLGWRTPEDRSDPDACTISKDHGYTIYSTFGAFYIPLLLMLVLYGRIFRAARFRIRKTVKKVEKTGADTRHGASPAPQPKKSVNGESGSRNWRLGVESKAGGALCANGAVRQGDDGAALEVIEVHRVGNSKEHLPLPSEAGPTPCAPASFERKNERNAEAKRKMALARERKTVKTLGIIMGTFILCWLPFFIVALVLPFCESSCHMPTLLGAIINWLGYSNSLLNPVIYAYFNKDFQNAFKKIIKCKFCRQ
Description: as §1, §2

Measured: receptor binding

T2 sequence (P41595 whole entry, species assumed): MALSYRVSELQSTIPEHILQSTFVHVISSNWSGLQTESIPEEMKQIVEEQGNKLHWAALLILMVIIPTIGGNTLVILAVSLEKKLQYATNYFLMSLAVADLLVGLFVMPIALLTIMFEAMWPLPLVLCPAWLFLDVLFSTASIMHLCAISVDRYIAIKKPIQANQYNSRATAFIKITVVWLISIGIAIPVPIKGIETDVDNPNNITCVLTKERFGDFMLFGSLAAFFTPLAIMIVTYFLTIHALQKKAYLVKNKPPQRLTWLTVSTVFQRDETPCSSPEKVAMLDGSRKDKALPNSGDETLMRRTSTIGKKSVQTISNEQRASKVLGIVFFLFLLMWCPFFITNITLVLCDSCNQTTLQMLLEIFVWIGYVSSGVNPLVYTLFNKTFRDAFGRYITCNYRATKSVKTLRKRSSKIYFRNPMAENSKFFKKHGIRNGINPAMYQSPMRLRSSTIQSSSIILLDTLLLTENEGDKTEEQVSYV
T3 sequence (P28221 whole entry): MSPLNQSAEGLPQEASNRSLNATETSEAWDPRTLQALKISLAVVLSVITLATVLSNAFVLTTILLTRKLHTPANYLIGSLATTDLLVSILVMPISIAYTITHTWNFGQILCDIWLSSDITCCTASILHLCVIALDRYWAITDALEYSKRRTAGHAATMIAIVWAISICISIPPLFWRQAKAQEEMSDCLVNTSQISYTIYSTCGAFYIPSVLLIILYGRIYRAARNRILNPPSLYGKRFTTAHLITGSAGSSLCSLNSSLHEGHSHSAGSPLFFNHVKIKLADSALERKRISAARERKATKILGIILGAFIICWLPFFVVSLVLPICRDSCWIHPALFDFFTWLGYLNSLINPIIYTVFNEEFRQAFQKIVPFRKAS
T1 sequence (P47898 whole entry): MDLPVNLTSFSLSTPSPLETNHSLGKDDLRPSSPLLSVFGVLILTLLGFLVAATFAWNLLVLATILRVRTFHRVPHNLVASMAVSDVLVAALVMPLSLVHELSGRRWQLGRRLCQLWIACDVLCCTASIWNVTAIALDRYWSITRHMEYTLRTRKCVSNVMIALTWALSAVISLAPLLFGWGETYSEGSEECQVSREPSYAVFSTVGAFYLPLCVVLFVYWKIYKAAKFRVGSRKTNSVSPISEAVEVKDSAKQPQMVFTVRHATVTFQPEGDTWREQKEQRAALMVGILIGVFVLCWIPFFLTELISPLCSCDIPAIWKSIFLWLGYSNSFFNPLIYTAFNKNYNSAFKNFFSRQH

CNCC(=O)NCCCN1CCC(CCCN2c3ccccc3Sc3ccc(C(F)(F)F)cc32)CC1 [ICI-1259, 2-(methylamino)-N-(3-(4-(3-(2-(trifluoromethyl)-10H-phenothiazin-10-yl)propyl)piperidin-1-yl)propyl)acetamide]
bind: all assays above

NCC(=O)NCCCN1CCC(CCCN2c3ccccc3Sc3ccc(C(F)(F)F)cc32)CC1 [ICI-1260, 2-amino-N-(3-(4-(3-(2-(trifluoromethyl)-10H-phenothiazin-10-yl)propyl)piperidin-1-yl)propyl)acetamide]
bind: all assays above
